According to patent publication EP2787003A1, “Antimicrobial peptide produced by marine sponge-derived Bacillus subtilis” (priority 2013, dated 2014):

Experiments:
B. megaterium = experiment: Spot on lawn assay; format: cell-based, Bacillus megaterium ATCC 19213 (BGSC 7A2); design: key: +, clear halo of growth inhibition; ++: multiple +, increased activity as assessed visually by the increased diameter of the inhibition zone; +++: multiple +, increased activity as assessed visually by the increased diameter of the inhibition zone; ++++: multiple +, increased activity as assessed visually by the increased diameter of the inhibition zone; +++++: multiple +, increased activity as assessed visually by the increased diameter of the inhibition zone; -, no inhibition; conditions: indicator B. megaterium
Experimental: (§1) Antimicrobial activity of isolate MMA7 against the indicator strains was initially assessed with a deferred antagonism assay as described by Phelan et al. (2012). Subsequent testing of supernatants, crude extracts and purified compounds was carried out with a well and/or a spot on lawn assays. Essentially, 5 µl of samples were spotted onto 20 ml agar plates seeded with the indicator strain to a final OD600 of 0.015, or 30 µl aliquots were applied to a 5 mm well made on identical plates.

L. monocytogenes [1] = experiment: Spot on lawn assay; format: cell-based, Listeria monocytogenes EGDe; design: key: +, clear halo of growth inhibition; ++: multiple +, increased activity as assessed visually by the increased diameter of the inhibition zone; +++: multiple +, increased activity as assessed visually by the increased diameter of the inhibition zone; ++++: multiple +, increased activity as assessed visually by the increased diameter of the inhibition zone; +++++: multiple +, increased activity as assessed visually by the increased diameter of the inhibition zone; -, no inhibition; conditions: indicator L. monocytogenes
Experimental: as §1

C. perfringens = format: cell-based, Clostridium perfringens NCDO 1799; design: key: +, clear halo of growth inhibition; ++: multiple +, increased activity as assessed visually by the increased diameter of the inhibition zone; +++: multiple +, increased activity as assessed visually by the increased diameter of the inhibition zone; ++++: multiple +, increased activity as assessed visually by the increased diameter of the inhibition zone; +++++: multiple +, increased activity as assessed visually by the increased diameter of the inhibition zone; -, no inhibition; conditions: indicator C. perfringens
C. difficile = experiment: Spot on lawn assay; format: cell-based, Clostridium difficile 001; design: key: +, clear halo of growth inhibition; ++: multiple +, increased activity as assessed visually by the increased diameter of the inhibition zone; +++: multiple +, increased activity as assessed visually by the increased diameter of the inhibition zone; ++++: multiple +, increased activity as assessed visually by the increased diameter of the inhibition zone; +++++: multiple +, increased activity as assessed visually by the increased diameter of the inhibition zone; -, no inhibition; conditions: indicator C. difficile
Experimental: as §1

E. faecium = experiment: Spot on lawn assay; format: cell-based, Euterococcous faecium NCIMB 11508; design: key: +, clear halo of growth inhibition; ++: multiple +, increased activity as assessed visually by the increased diameter of the inhibition zone; +++: multiple +, increased activity as assessed visually by the increased diameter of the inhibition zone; ++++: multiple +, increased activity as assessed visually by the increased diameter of the inhibition zone; +++++: multiple +, increased activity as assessed visually by the increased diameter of the inhibition zone; -, no inhibition; conditions: indicator E. faecium
Experimental: as §1

MRSA = experiment: Spot on lawn assay; format: cell-based, MRSA ST 530; design: key: +, clear halo of growth inhibition; ++: multiple +, increased activity as assessed visually by the increased diameter of the inhibition zone; +++: multiple +, increased activity as assessed visually by the increased diameter of the inhibition zone; ++++: multiple +, increased activity as assessed visually by the increased diameter of the inhibition zone; +++++: multiple +, increased activity as assessed visually by the increased diameter of the inhibition zone; -, no inhibition; conditions: indicator MRSA
L. lactis HP = experiment: Spot on lawn assay; format: cell-based, Lactococcus lactis HP; design: key: +, clear halo of growth inhibition; ++: multiple +, increased activity as assessed visually by the increased diameter of the inhibition zone; +++: multiple +, increased activity as assessed visually by the increased diameter of the inhibition zone; ++++: multiple +, increased activity as assessed visually by the increased diameter of the inhibition zone; +++++: multiple +, increased activity as assessed visually by the increased diameter of the inhibition zone; -, no inhibition; conditions: indicator L. lactis HP
Experimental: as §1

V. anguillarum = experiment: Spot on lawn assay; format: cell-based, Listonella (Vibrio) anguillarum LMG 4410; design: key to Antimicrobial activity, spot on lawn assay: +, clear halo of growth inhibition; ++: multiple +, increased activity as assessed visually by the increased diameter of the inhibition zone; +++: multiple +, increased activity as assessed visually by the increased diameter of the inhibition zone; ++++: multiple +, increased activity as assessed visually by the increased diameter of the inhibition zone; +++++: multiple +, increased activity as assessed visually by the increased diameter of the inhibition zone; -, no inhibition
Experimental: as §1

C. dubliniensis = experiment: Spot on lawn assay; format: cell-based, Candida dubliniensis; design: key: +, clear halo of growth inhibition; ++: multiple +, increased activity as assessed visually by the increased diameter of the inhibition zone; +++: multiple +, increased activity as assessed visually by the increased diameter of the inhibition zone; ++++: multiple +, increased activity as assessed visually by the increased diameter of the inhibition zone; +++++: multiple +, increased activity as assessed visually by the increased diameter of the inhibition zone; -, no inhibition; conditions: indicator C. dubliniensis
Experimental: as §1

[2] = dried pellets from 1.5 ml RP-HPLC-purified fractions
L. monocytogenes [3] = experiment: Thermal stability, bioactivity by spot on lawn assay
α-chymotrypsin = α-chymotrypsin (Bos taurus, UniProt P00766); experiment: Susceptibility to proteolytic enzymes, bioactivity by spot on lawn assay; conditions: α-chymotrypsin 1 mg ml^-1, 37 °C, 1 h; indicator L. monocytogenes
[4] = tested on: protease mixture from Streptomyces griseus; experiment: as above; conditions: Streptomyces griseus protease 1 mg ml^-1, 37 °C, 1 h; indicator L. monocytogenes

**Q.** What does the source list for C=C1NC(=O)[C@@H]2CSC[C@@H](NC(=O)[C@@H]3CS[C@@H](C)[C@H]4NC(=O)[C@H](Cc5ccccc5)NC(=O)[C@H](NC(=O)[C@H](CCCNC(=N)N)NC(=O)[C@@H]5CSC[C@@H](NC(=O)[C@H](CCC(N)=O)NC(=O)[C@@H](NC(=O)[C@@H](NC(=O)/C(=C/C)NC(=O)[C@H](CCCCN)NC(=O)CNC(=O)[C@@H](NC(=O)/C(=C/C)NC(=O)[C@H](C)NC(=O)[C@H](Cc6c[nH]c7ccccc67)NC(=O)C(=O)CC)[C@@H](C)CC)[C@@H](C)CC)C(C)C)C(=O)N[C@@H](C(C)C)C(=O)N[C@@H](CCCCN)C(=O)N[C@@H](CCCCN)C(=O)N5)[C@H](C)SC[C@H](NC4=O)C(=O)NCC(=O)N3)C(=O)N[C@@H](CC(C)C)C(=O)NCC(=O)N[C@H](CSC[C@@H](C(=O)N[C@@H](CC(N)=O)C(=O)O)NC(=O)[C@H](CC(N)=O)NC1=O)C(=O)N2 [Subtilomycin]?
**A.** Antimicrobial activity, spot on lawn assay (B. megaterium): ++; Antimicrobial activity, spot on lawn assay (L. monocytogenes [1]): ++; Antimicrobial activity, spot on lawn assay (C. perfringens): -; Antimicrobial activity, spot on lawn assay (C. difficile): -; Antimicrobial activity, spot on lawn assay (E. faecium): -; Antimicrobial activity, spot on lawn assay (MRSA): +; Antimicrobial activity, spot on lawn assay (L. lactis HP): +; Amount of peptide needed for detectable activity relative to that required to inhibit the Gram-positive indicators (V. anguillarum; V. anguillarum): four to five fold more peptide; Antimicrobial activity, spot on lawn assay (V. anguillarum; indicator V. anguillarum, *activity only detected with 4 to 5 times more peptide than that used for the other indicators): +*; Antimicrobial activity, spot on lawn assay (C. dubliniensis): -; Solubility in water [2]: fully soluble; Activity after heat treatment (L. monocytogenes [3]; 100 °C for 1 hr, L. monocytogenes): no activity; Activity after heat treatment (L. monocytogenes [3]; wide range of temperatures, including 100 °C for 30 minutes): stable; Antimicrobial activity after proteolytic treatment (α-chymotrypsin): None of the treatments resulted in a decrease of activity; Antimicrobial activity after proteolytic treatment [4]: complete loss of activity
